Source: US6362212B1, “Oxime derivative and bactericide containing the same as active ingredient” (Shionogi & Company, Ltd., priority 1994, dated 2002)

Key:
Assay type in all cases: in vivo
[1] = system: Pyricularia oryzae; settings: foliage spray on rice seedlings (cv. […]), number of lesions six days after the inoculation
[2] = system: Erysiphe graminis f. sp. tritici; test: Controlling effect on Erysiphe graminis f. sp. tritici by foliage application (pot experiment); settings: foliage spray on wheat (cv. NORIN No. 61) seedlings, infected area after 10 days in greenhouse at 20° C.
Experimental: The following Test Examples illustrate the effects of the fungicide of the present invention. (I. Controlling effects on various plant diseases by foliage application (pot experiment)) A test compound was dissolved in a small amount of N,N-dimethylformamide, and the solution was diluted to a given concentration with distilled water containing a spreader. Thus, a liquid sample to be tested was prepared. The liquid sample was sprayed to test plants, and 24 hours thereafter, pathogens were inoculated by the method described below. […] The seeds of wheat (cv.: NORIN No. 61) were sown in plastic cups (each 9 cm in diameter), followed by cultivation for 2 to 3 weeks. The test compound in the form of a solution or suspension was sprayed to the seedlings, and conidia of Erysiphe graminis f. sp. tritici cultured on wheat leaves were dropped on the test plants to inoculate the plants with the pathogen. After the inoculation, the plants were kept in a greenhouse at 20° C. for 10 days. The infected area on the leaf was observed, and the percent control was calculated.

[3] = system: Sphaerotheca fuliginea; test: Controlling effect on Sphaerotheca fuliginea by foliage application (pot experiment); settings: foliage spray on cucumber (cv. TSUKUBASHIROIBO) first leaves, infected area after 10 days in greenhouse at 20° C.
Experimental: The following Test Examples illustrate the effects of the fungicide of the present invention. (I. Controlling effects on various plant diseases by foliage application (pot experiment)) A test compound was dissolved in a small amount of N,N-dimethylformamide, and the solution was diluted to a given concentration with distilled water containing a spreader. Thus, a liquid sample to be tested was prepared. The liquid sample was sprayed to test plants, and 24 hours thereafter, pathogens were inoculated by the method described below. […] Seeds of cucumber ([…]) were sown in plastic cups (each 9 cm in diameter), followed by cultivation for 2 to 3 weeks. The liquid test sample in the form of a solution or suspension was sprayed on the surface of their first leaves. The pathogen was inoculated to the leaves by spraying a conidia suspension of Sphaerotheca fuliginea which had been cultured on the cucumber leaves. After the inoculation, the plants were kept in a greenhouse at 20° C. for 10 days. Then, the infected area on the leaf was observed, and the percent control was calculated.

[4] = system: Pseudoperonospora cubensis; test: Controlling effect on Pseudoperonospora cubensis by foliage application (pot experiment); settings: foliage spray on cucumber (var. TSUKUBASHIROIBO) first leaves, lesion area after 10 days in moist chamber at 20° C.
Experimental: The following Test Examples illustrate the effects of the fungicide of the present invention. (I. Controlling effects on various plant diseases by foliage application (pot experiment)) A test compound was dissolved in a small amount of N,N-dimethylformamide, and the solution was diluted to a given concentration with distilled water containing a spreader. Thus, a liquid sample to be tested was prepared. The liquid sample was sprayed to test plants, and 24 hours thereafter, pathogens were inoculated by the method described below. […] The seeds of cucumber (var.: […]) were sown in plastic cups (each 9 cm in diameter), followed by cultivation for 2 to 3 weeks. The test compound in the form of a solution or suspension was sprayed to the surface of their first leaves, and a zoosporangia suspension of Pseudoperonospora cubensis cultured on cucumber leaves was dropped on the above leaf surfaces to inoculate the test plants with the pathogen. After the inoculation, the plants were kept in a moist chamber at 20° C. for 10 days. Then, the area of the lesions around the inoculum were observed and the percent control was calculated.

Row | SMILES | Controlling effect on PYricularia orYzae by foliage application at 500 ppm (percent control) [1] | Controlling effect on ErYsiphe graminis f. sp. tritici by foliage application at 500 ppm (percent control) [2] | Controlling effect on Sphaerotheca fuliginea by foliage application at 500 ppm (percent control) [3] | Controlling effect on Pseudoperonospora cubensis by foliage application at 500 ppm (percent control) [4]
1 | CON=C(c1ccon1)c1ccccc1COc1ccccc1Cl (mixture of isomers) [compound 305] | 70 percent control | 90 percent control | 100 percent control | 100 percent control
2 | CON=C(c1ccon1)c1ccccc1COc1cccc(Cl)c1 (mixture of isomers) [compound 306] | 70 percent control | 70 percent control | 97 percent control | 100 percent control
3 | CON=C(c1ccon1)c1ccccc1COc1cccc(C)c1 (mixture of isomers) [compound 313] | 90 percent control | 70 percent control | 100 percent control | 100 percent control
4 | CON=C(c1cc(C)on1)c1ccccc1COc1ccccc1C (mixture of isomers) [compound 412] |  | 70 percent control | 100 percent control | 100 percent control
5 | CON=C(c1ccccc1COc1ccccc1Cl)c1nccn1C (single isomer, unassigned) [105A] | 97 percent control | 70 percent control | 100 percent control | 100 percent control
6 | CON=C(c1ccccc1COc1cccc(Cl)c1)c1nccn1C (single isomer, unassigned) [106B] |  |  | 97 percent control | 100 percent control
7 | CON=C(c1ccccc1COc1cccc(C)c1)c1nccn1C (single isomer, unassigned) [113A] | 97 percent control | 90 percent control | 100 percent control | 100 percent control
8 | CON=C(c1ccccc1COc1cc(Cl)ccc1Cl)c1nccn1C (single isomer, unassigned) [131A] | 90 percent control | 90 percent control | 100 percent control | 100 percent control
9 | CON=C(c1ccccc1COc1cccc(C(C)C)c1)c1nccn1C (single isomer, unassigned) [146A] | 97 percent control |  | 97 percent control | 100 percent control
10 | CON=C(c1ccno1)c1ccccc1COc1ccc(Cl)cc1C (single isomer, unassigned) [541A] |  | 90 percent control | 100 percent control | 100 percent control
11 | CON=C(c1cc(C)no1)c1ccccc1COc1cccc(Cl)c1 (single isomer, unassigned) [606A] |  | 70 percent control | 100 percent control | 95 percent control
12 | CON=C(c1cc(C)no1)c1ccccc1COc1cccc(Cl)c1 (single isomer, unassigned) [606B] |  |  | 100 percent control | 100 percent control
13 | CON=C(c1cc(C)no1)c1ccccc1COc1ccc(Cl)cc1 (single isomer, unassigned) [607B] |  | 70 percent control | 97 percent control | 97 percent control
14 | CON=C(c1cc(C)no1)c1ccccc1COc1ccccc1C (single isomer, unassigned) [612B] |  | 100 percent control | 100 percent control | 100 percent control
15 | CON=C(c1cc(C)no1)c1ccccc1COc1cccc(C)c1 (single isomer, unassigned) [613B] |  | 70 percent control | 100 percent control | 100 percent control
16 | CON=C(c1cc(C)no1)c1ccccc1COc1ncc(C(F)(F)F)cc1Cl (single isomer, unassigned) [690B, 2-(3-chloro-5-trifluoromethyl-2-pyridyloxymethyl)phenyl 3-methylisoxazol-5-yl ketone O-methyloxime] |  |  |  | 100 percent control
17 | COC(=O)C(C)N(C(=O)Cc1ccccc1)c1c(C)cccc1C (stereo not shown) [Benalaxyl, reference compound] |  |  |  | 97 percent control
18 | CON=C(c1cc(C)no1)c1ccccc1CON=C(C)c1ccc(Cl)cc1 [Compound No. 2507] |  |  | 100 percent control | 100 percent control
19 | CON=C(c1nnco1)c1ccccc1COc1ccccc1Cl [compound 705] | 70 percent control |  | 97 percent control | 100 percent control
20 | CON=C(c1ncon1)c1ccccc1COc1ccc(-c2ccccc2)cc1 [compound 844] |  |  | 97 percent control | 100 percent control
21 | CON=C(c1noc(C)n1)c1ccccc1COc1ccccc1Cl [compound 905] |  |  | 90 percent control | 99 percent control
22 | CON=C(c1nnn(C)n1)c1ccccc1COc1ccc(C)cc1 [compound 2014] |  |  | 100 percent control | 100 percent control
23 | CON=C(c1nnn(C)n1)c1ccccc1COc1ccc(-c2ccccc2)cc1 [compound 2044] |  |  | 97 percent control | 100 percent control
